Source: US20250154174A1, “BICYCLIC HETEROCYCLES AS MRGPRX2 ANTAGONISTS” (Incyte Corporation, priority 2023, published 2025)
pIC50: −log10 of the molar value.

Experiments:
[1] = target: T1, MRGPRX2 (Homo sapiens, UniProt Q96LB1); assay: MRGPRX2 FLIPR calcium mobilization assay; format: cell-based; parameters: host or cells: CHO-K1; conditions: CHO-K1 cells stably expressing human MRGPRX2; agonist Cortistatin-14 at EC80; Ca2+ release
T1 sequence (Q96LB1 1-330): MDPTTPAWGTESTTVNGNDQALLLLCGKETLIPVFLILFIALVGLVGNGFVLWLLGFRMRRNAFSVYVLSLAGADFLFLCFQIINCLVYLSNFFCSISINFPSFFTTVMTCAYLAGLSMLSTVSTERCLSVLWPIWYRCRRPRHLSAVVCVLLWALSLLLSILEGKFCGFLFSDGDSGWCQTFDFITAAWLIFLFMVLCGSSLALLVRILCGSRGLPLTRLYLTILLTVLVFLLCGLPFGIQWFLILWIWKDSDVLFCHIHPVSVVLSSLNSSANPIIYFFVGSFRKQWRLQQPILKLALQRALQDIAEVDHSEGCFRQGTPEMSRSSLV
Experimental: Chinese hamster ovary (CHO-K1) cells stably expressing human MRGPRX2 were purchased from Genescript (Piscataway, NJ). The cells were maintained in culture medium (Ham's F-12K) containing 10% (v/v) FBS, 200 μg/mL Zeocin, 100 units/mL penicillin G and 100 μg/mL streptomycin (Life Technologies, Carlsbad, CA). For the assay, the cells were harvested and resuspended with culture medium without Zeocin before plating at 8000 cells per well in 20 μL in 384-well black clear bottom cell culture plates (VWR, Radnor, PA). After 24 h culture at 37° C. and 5% CO2, the cells were loaded with 20 μL/well of calcium dye (FLIPR Calcium 6 Assay Kit, Molecular Devices, San Jose, CA) diluted in loading buffer (1× Hank's Balanced Salt Solution (HBSS), 5 mM probenecid, 20 mM 4-(2-hydroxyethyl)-1-piperazineethanesulfonic acid (HEPES), pH 7.4, VWR, Radnor, PA) followed with 45 min. incubation at 37° C. and 40 min. at r.t. in the dark. Cells were then treated with the addition of 10 uL/well test compounds with a range of increasing concentrations diluted in the assay buffer (1×HBSS, 20 mM HEPES, pH 7.4, VWR, Radnor, PA) with FLIPR Penta (Molecular Devices. San Jose, CA) and incubated for 30 min. at r.t. Ca^2+ release was measured with FLIPR Penta with 10 s basal fluorescence measurement, then 12.5 μL of 5× agonist Cortistatin-14 (Tocris, Minneapolis, MN) at final concentration corresponding to the EC80 were added followed with continued fluorescence signal monitoring for an additional 110 s. The base line adjusted (median of first 10s base line) max value of the Relative Fluorescence Unit (RFU) was plotted against compound concentrations. Wells with no compound were served as the positive controls, and wells with high concentration of reference antagonist were used as negative controls. IC50 curves were globally fitted with 3- or 4-parameter Hill equation in a Genedata Screener (Genedata Basel, Switzerland).

[2] = target: T1, MRGPRX2; assay: MRGPRX2 IP1 HTRF assay; format: cell-based; parameters: host or cells: CHO-K1; conditions: CHO-K1 cells stably expressing human MRGPRX2; agonist Cortistatin 14 1 μM; IP1 accumulation
Experimental: This assay measures compound inhibition of myo-Inositol 1 phosphate (IP1) accumulation in CHO-K1 cells. Chinese hamster ovary (CHO-K1) cells stably expressing human MRGPRX2 were purchased from GenScript (Piscataway, NJ).
For the HTRF IP1 determination, an IP-One GqKit (Perkin Elmer Cisbio, Waltham, MA), which includes all reagents and buffers in this protocol, was used. The cells were maintained in culture medium (Ham's F-12K) containing 10% (v/v) FBS, and 200 μg/mL Zeocin. For the assay, the cells were harvested and resuspended in culture medium with 2% FBS and without Zeocin, then were passed through a 40 μm filter. Cells were added at 20000 cells in a 5 μL/well to a 384-well white small volume cell culture plate (Greiner VWR, Radnor, PA) which contained 50 nL/well of test compound serially diluted at a selected concentration range in DMSO. 5 μL/well of prepared 2× Stimulation Buffer2 was then added to plates and was incubated at 37° C. with 5% CO2 for 1 h. 5 μL/well of agonist Cortistatin 14 (Bio-TechneR&D Systems, Minneapolis, MN) in 1×Stimulation Buffer 2, for a 1 μM final concentration, was then added to plates and incubated at 37° C. with 5% CO2 for 1 h. 6 μL/well of 1:20 diluted Detection Reagent Mix (d2 and Cryptate) was added to the plates and incubated for 1 h in the dark. Plates were read on the PHERAstar microplate reader (BMG Labtech Cary, NC) to determine the HTRF ratio of the acceptor and donor emission signals. The IP1 concentrations were calculated from a standard curve following the IP-One GQ kit instructions. Wells with DMSO only and wells with high concentration of reference antagonist were used as controls for normalization. Compound IC50 curves were globally fitted with 3- or 4-parameter Hill equation in a Genedata Screener (Genedata Basel, Switzerland).

| Compound | pIC50 [1] | pIC50 [2] |
| --- | --- | --- |
| Cc1cc2nc(C(F)(F)F)cc(N[C@H]3CCC[C@@H](Nc4nccc5ncn(C)c45)C3)n2n1 [Example 6, (1R,3S)—N^1-(3-Methyl-3H-imidazo[4,5-c]pyridin-4-yl)-N^3-(2-methyl-5-(trifluoromethyl)pyrazolo[1,5-a]pyrimidin-7-yl)cyclohexane-1,3-diamine] | 6.00 to 7.00 | – |
| FC(F)(F)c1cc(N[C@H]2CCC[C@@H](Nc3nccc4ncccc34)C2)n2nc(C(F)(F)F)cc2n1 [Example 11, (1S,3R)—N^1-(2,5-Bis(trifluoromethyl)pyrazolo[1,5-a]pyrimidin-7-yl)-N^3-(1,6-naphthyridin-5-yl)cyclohexane-1,3-diamine] | 7.00 to 10.00 | 7.00 to 10.00 |
| FC(F)(F)c1cc(N[C@H]2CCC[C@@H](Nc3nnc4ccccn34)C2)n2nc(C(F)(F)F)cc2n1 [Example 18, (1R,3S)—N^1—([1,2,4]Triazolo[4,3-a]pyridin-3-yl)-N^3-(2,5-bis(trifluoromethyl)pyrazolo[1,5-a]pyrimidin-7-yl)cyclohexane-1,3-diamine] | 7.00 to 10.00 | 6.00 to 7.00 |
| FC(F)(F)c1cc(N[C@H]2CCC[C@@H](Nc3nccc4ncccc34)C2)n2nc(Br)cc2n1 [Example 9, (1S,3R)—N^1-(2-Bromo-5-(trifluoromethyl)pyrazolo[1,5-a]pyrimidin-7-yl)-N^3-(1,6-naphthyridin-5-yl)cyclohexane-1,3-diamine] | 7.00 to 10.00 | 7.00 to 10.00 |
| FC(F)(F)c1cc(N[C@H]2CCC[C@@H](Nc3nccc4nccn34)C2)n2nc(Br)cc2n1 [Example 16, (1S,3R)—N^1-(2-Bromo-5-(trifluoromethyl)pyrazolo[1,5-a]pyrimidin-7-yl)-N^3-(imidazo[1,2-c]pyrimidin-5-yl)cyclohexane-1,3-diamine] | 7.00 to 10.00 | 6.00 to 7.00 |
| FC(F)(F)c1cc(N[C@H]2CCC[C@@H](Nc3nccn4cncc34)C2)n2nc(Br)cc2n1 [Example 12, (1S,3R)—N^1-(2-Bromo-5-(trifluoromethyl)pyrazolo[1,5-a]pyrimidin-7-yl)-N^3-(imidazo[1,5-a]pyrazin-8-yl)cyclohexane-1,3-diamine] | 7.00 to 10.00 | 6.00 to 7.00 |
| FC(F)(F)c1cc(N[C@H]2CCC[C@@H](Nc3nccc4nccn34)C2)n2nc(C(F)(F)F)cc2n1 [Example 17, (1S,3R)—N^1-(2,5-Bis(trifluoromethyl)pyrazolo[1,5-a]pyrimidin-7-yl)-N^3-(imidazo[1,2-c]pyrimidin-5-yl)cyclohexane-1,3-diamine] | 7.00 to 10.00 | 7.00 to 10.00 |
| FC(F)(F)c1cc(N[C@H]2CCC[C@@H](Nc3nccn4cncc34)C2)n2nc(C(F)(F)F)cc2n1 [Example 14, (1S,3R)—N^1-(2,5-Bis(trifluoromethyl)pyrazolo[1,5-a]pyrimidin-7-yl)-N^3-(imidazo[1,5-a]pyrazin-8-yl)cyclohexane-1,3-diamine] | 7.00 to 10.00 | 6.00 to 7.00 |
| FC(F)(F)c1cc(N[C@H]2CCC[C@@H](Nc3nnc4ccccn34)C2)n2nc(Br)cc2n1 [Example 10, (1R,3S)—N^1—([1,2,4]Triazolo[4,3-a]pyridin-3-yl)-N^3-(2-bromo-5-(trifluoromethyl)pyrazolo[1,5-a]pyrimidin-7-yl)cyclohexane-1,3-diamine] | 7.00 to 10.00 | 6.00 to 7.00 |
| Cn1cnc2ccnc(N[C@@H]3CCC[C@H](Nc4cc(C(F)(F)F)nc5cc(C(F)(F)F)nn45)C3)c21 [Example 15, (1S,3R)—N^1-(2,5-Bis(trifluoromethyl)pyrazolo[1,5-a]pyrimidin-7-yl)-N^3-(3-methyl-3H-imidazo[4,5-c]pyridin-4-yl)cyclohexane-1,3-diamine] | 7.00 to 10.00 | 6.00 to 7.00 |
| FC(F)(F)c1cn2c(N[C@H]3CCC[C@@H](Nc4nccn5cncc45)C3)cccc2n1 [Example 4, (1R,3S)—N^1-(Imidazo[1,5-a]pyrazin-8-yl)-N^3-(2-(trifluoromethyl)imidazo[1,2-a]pyridin-5-yl)cyclohexane-1,3-diamine] | 7.00 to 10.00 | 6.00 to 7.00 |
| FC(F)(F)c1cc(N[C@H]2CCC[C@@H](Nc3nccn4nccc34)C2)n2nc(Br)cc2n1 [Example 8, (1S,3R)—N^1-(2-Bromo-5-(trifluoromethyl)pyrazolo[1,5-a]pyrimidin-7-yl)-N^3-(pyrazolo[1,5-a]pyrazin-4-yl)cyclohexane-1,3-diamine] | 7.00 to 10.00 | 6.00 to 7.00 |
| Cn1cnc2ccnc(N[C@H]3CC[C@@H](Nc4cccc5nc(C(F)(F)F)cn45)CC3)c21 [Example 2, (1s,4s)-N^1-(3-Methyl-3H-imidazo[4,5-c]pyridin-4-yl)-N^4-(2-(trifluoromethyl)imidazo[1,2-a]pyridin-5-yl)cyclohexane-1,4-diamine] | 7.00 to 10.00 | 6.00 to 7.00 |
| Cn1cnc2ccnc(N[C@@H]3CCC[C@H](Nc4cc(C(F)(F)F)nc5cc(Br)nn45)C3)c21 [Example 13, (1S,3R)—N^1-(2-Bromo-5-(trifluoromethyl)pyrazolo[1,5-a]pyrimidin-7-yl)-N^3-(3-methyl-3H-imidazo[4,5-c]pyridin-4-yl)cyclohexane-1,3-diamine] | 7.00 to 10.00 | 6.00 to 7.00 |
| Cc1cc2nc(C(F)(F)F)cc(N[C@H]3CCC[C@@H](Nc4nccc5ncccc45)C3)n2n1 [Example 7, (1S,3R)—N^1-(2-Methyl-5-(trifluoromethyl)pyrazolo[1,5-a]pyrimidin-7-yl)-N^3-(1,6-naphthyridin-5-yl)cyclohexane-1,3-diamine] | 7.00 to 10.00 | 6.00 to 7.00 |
| Cn1cnc2ccnc(N[C@@H]3CCC[C@H](Nc4cccc5nc(C(F)(F)F)cn45)C3)c21 [Example 1, (1R,3S)—N^1-(3-Methyl-3H-imidazo[4,5-c]pyridin-4-yl)-N^3-(2-(trifluoromethyl)imidazo[1,2-a]pyridin-5-yl)cyclohexane-1,3-diamine] | 6.00 to 7.00 | 6.00 to 7.00 |
